Assay results taken from patent US20210330611A1, “THERAPY FOR NEUROLOGICAL DISEASES/DISORDERS” (priority 2020, published 2021).
Structures can show the parent of a compound that is named as a salt. Where two headings read alike, the source gives them in different places. *1 amine or outer side, *2 acyl side, *3 side chain or, on linkers, in order; H or OH if unused. Where a SMILES comes first, the peptide text is derived from it. Bridges are numbered along the chain shown (N, C = ends). Roman numbers before positions name the chains, in order. [ ]: non-standard residue; d: D form. Actinocin(9to1) = Cc1c2oc3c(C)ccc(C(=O)[*:1])c3nc-2c(C(=O)[*:2])c(N)c1=O; NMeV = CN[C@H](C(=O)O)C(C)C; Sar = CNCC(=O)O

Key:
Assay type in all cases: cell-based, rat
[1] = test system: fibrin-induced microglia activation; assay: Image-based assay of fibrin-induced microglia activation (HTS and dose response); settings: for inhibition at 10 µM / IC50: Rattus norvegicus, Microglia; for inhibition at 10 µM: read-out: Fibrin % inhibition
[2] = test system: fibrin- and LPS-induced microglia activation; assay: cells; settings: for inhibition at 10 µM: Rattus norvegicus, Microglia
[3] = test system: LPS-induced microglia activation; assay: Image-based assay of LPS-induced microglia activation (HTS and dose response); settings: for inhibition at 10 µM / IC50: Rattus norvegicus, Microglia; for inhibition at 10 µM: read-out: LPS % inhibition
[4] = primary microglia HTS, fibrin stimulation, compounds at 10 μM
[5] = primary microglia HTS, LPS stimulation, compounds at 10 μM
[6] = primary HTS, 10 μM, fibrin-stimulated primary microglia
[7] = primary HTS, 10 μM, LPS-stimulated primary microglia
[8] = classification by fibrin and LPS inhibition, HTS at 10 μM
[9] = primary microglia HTS, fibrin stimulation, increased cell size (>800 μm^2) as marker of activation
[10] = quadrant by fibrin and LPS inhibition in HTS of 1907 compounds
[11] = 48 h, primary microglia HTS, LPS stimulation, increased cell size (>800 μm^2) as marker of activation

## O=C(CCCN1CCN(c2ccccn2)CC1)c1ccc(F)cc1 [Azaperone]
[1]; [4]
  inhibition at 10 µM: -4%
[2]; quadrant by fibrin and LPS inhibition, HTS at 10 μM
  Quadrant (FIG. 5b): Q4
[3]; [5]
  inhibition at 10 µM: 12%

## CC1=C(/C=C/C(C)=C/C=C/C(C)=C/C=C/C=C(C)/C=C/C=C(C)/C=C/C2=C(C)CCCC2(C)C)C(C)(C)CCC1 [Beta-carotene]
[1]
  inhibition at 10 µM: -15%
[2]
  Quadrant (FIG. 5b): Q4
[3]
  inhibition at 10 µM: -3%

## CC1=C(C(=O)O)N2C(=O)[C@@H](NC(=O)[C@H](N)c3ccccc3)[C@H]2SC1 [Cephalexin]
[1]
  inhibition at 10 µM: -1%
[2]
  Quadrant (FIG. 5b): Q4
[3]
  inhibition at 10 µM: 17%

## COCc1c(C(C)C)nc(C(C)C)c(/C=C/[C@@H](O)C[C@@H](O)CC(=O)O)c1-c1ccc(F)cc1 [Cerivastatin, Cerivastatin Na]
[1]
  Fibrin % inhibition: 103%
[2]
  Quadrant (FIG. 5b): Q2
[3]
  LPS % inhibition: 101%

## O=C(O)COCCN1CCN(C(c2ccccc2)c2ccc(Cl)cc2)CC1 (stereo not drawn) [Cetirizine]
[1]
  inhibition at 10 µM: 5%
[2]
  Quadrant (FIG. 5b): Q4
[3]
  inhibition at 10 µM: 0%

## N.N.[Cl][Pt][Cl] [Cisplatin]
[1]; [6]
  Fibrin % inhibition: −13%
[2]; primary HTS, 10 μM
  Quadrant (FIG. 5b): Q4
[3]; [7]
  LPS % inhibition: 20%

## CCC[C@@H]1C[C@@H](C(=O)N[C@@H]([C@H]2O[C@H](SC)[C@H](O)[C@@H](O)[C@H]2O)[C@H](C)Cl)N(C)C1 [Clindamycin Hydrochloride]
[1]
  inhibition at 10 µM: -44%
[2]
  Quadrant (FIG. 5b): Q4
[3]
  inhibition at 10 µM: 7%

## CCCCCCCCCCCCCCCC(=O)O[C@@H]1[C@@H](O)[C@@H](O)[C@@H]([C@H](NC(=O)[C@@H]2C[C@@H](CCC)CN2C)[C@H](C)Cl)O[C@@H]1SC.Cl [Clindamycin Palmitate Hydrochloride]
[1]; [6]
  Fibrin % inhibition: −23%
[2]; primary HTS, 10 μM
  Quadrant (FIG. 5b): Q4
[3]; [7]
  LPS % inhibition: 11%

## C[C@]12CCC(=O)C=C1CC[C@@H]1[C@@H]2C(=O)C[C@@]2(C)[C@H]1CC[C@]2(O)C(=O)CO [Cortisone]
[1]; [6]
  Fibrin % inhibition: 37%
[2]; primary HTS, 10 μM
  Quadrant (FIG. 5b): Q4
[3]; [7]
  LPS % inhibition: 44%

## CCOP(=S)(OCC)Oc1ccc2c(C)c(Cl)c(=O)oc2c1 [Coumophos]
[1]; [4]
  Fibrin % inhibition: −12%
[2]; [8]
  Quadrant (FIG. 5b): Q4
[3]; [5]
  LPS % inhibition: 16%

## OC[C@H]1O[C@H](O[C@H]2[C@H](O)[C@@H](O)C(O)O[C@@H]2CO)[C@H](O)[C@@H](O)[C@@H]1O (stereo partly drawn) [D-(+)-maltose]
[1]; [4]
  Fibrin % inhibition: −7%
[2]; [8]
  Quadrant (FIG. 5b): Q4
[3]; [5]
  LPS % inhibition: 14%

## C=C(C)[C@H]1CC=C(C)CC1 [D-limonene]
[1]; [4]
  Fibrin % inhibition: −19%
[2]; [8]
  Quadrant (FIG. 5b): Q4
[3]; [5]
  LPS % inhibition: 11%

## Cc1c2oc3c(C)ccc(C(=O)N[C@@H]4C(=O)N[C@H](C(C)C)C(=O)N5CCC[C@H]5C(=O)N(C)CC(=O)N(C)[C@@H](C(C)C)C(=O)O[C@@H]4C)c3nc-2c(C(=O)N[C@@H]2C(=O)N[C@H](C(C)C)C(=O)N3CCC[C@H]3C(=O)N(C)CC(=O)N(C)[C@@H](C(C)C)C(=O)O[C@@H]2C)c(N)c1=O [Dactinomycin] (I: T[dV]P[Sar][NMeV] / II: T[dV]P[Sar][NMeV]; ester I:1-I:C, II:1-II:C; linker I:N-II:N via Actinocin(9to1))
[1]; [9]
  inhibition at 10 µM: 106%
[2]; [10]
  Quadrant (FIG. 5b): Q2
[3]; [11]
  inhibition at 10 µM: 106%

## Cc1nc(Nc2ncc(C(=O)Nc3c(C)cccc3Cl)s2)cc(N2CCN(CCO)CC2)n1 [Dasatinib]
[1]; [9]
  inhibition at 10 µM: 109%
[2]; [10]
  Quadrant (FIG. 5b): Q2
[3]; [11]
  inhibition at 10 µM: 70%

## CN1C(=O)CN=C(c2ccccc2)c2cc(Cl)ccc21 [Diazepam]
[1]
  inhibition at 10 µM: -19%
[2]
  Quadrant (FIG. 5b): Q4
[3]
  inhibition at 10 µM: 5%

## O=C(O)Cc1ccccc1Nc1c(Cl)cccc1Cl [Diclofenac]
[1]; [4]
  inhibition at 10 µM: -27%
[2]; [8]
  Quadrant (FIG. 5b): Q4
[3]; [5]
  inhibition at 10 µM: 12%

## CN(C)CCOC(c1ccccc1)c1ccccc1 [Diphenhydramine]
[1]
  inhibition at 10 µM: -47%
[2]
  Quadrant (FIG. 5b): Q4
[3]
  inhibition at 10 µM: 15%

## COc1cc2c(cc1OC)C(=O)C(CC1CCN(Cc3ccccc3)CC1)C2 (stereo not drawn) [Donepezil]
[1]
  inhibition at 10 µM: 5%
[2]
  Quadrant (FIG. 5b): Q4
[3]
  inhibition at 10 µM: 17%

## COc1cccc2c1C(=O)c1c(O)c3c(c(O)c1C2=O)C[C@@](O)(C(=O)CO)C[C@@H]3O[C@H]1C[C@H](N)[C@H](O)[C@H](C)O1 [Doxorubicin]
[1]; [9]
  inhibition at 10 µM: 106%
[2]; [10]
  Quadrant (FIG. 5b): Q2
[3]; [11]
  inhibition at 10 µM: 108%

## O=C(CCCN1CC=C(n2c(=O)[nH]c3ccccc32)CC1)c1ccc(F)cc1 [Droperidol]
[1]
  inhibition at 10 µM: -3%
[2]
  Quadrant (FIG. 5b): Q4
[3]
  inhibition at 10 µM: 20%

## CN[C@@H](C)[C@H](O)c1ccccc1.Cl [Ephedrine (1r,2s) Hydrochloride]
[1]; [4]
  Fibrin % inhibition: −26%
[2]; [8]
  Quadrant (FIG. 5b): Q4
[3]; [5]
  LPS % inhibition: 10%

## C[C@]12CC[C@@H]3c4ccc(O)cc4CC[C@H]3[C@@H]1C[C@H](O)[C@@H]2O [Epiestriol]
[1]
  inhibition at 10 µM: -25%
[2]
  Quadrant (FIG. 5b): Q4
[3]
  inhibition at 10 µM: 6%

## C[C@]12CC[C@@H]3c4ccc(O)cc4CC[C@H]3[C@@H]1C[C@@H](O)[C@@H]2O [Estriol]
[1]
  inhibition at 10 µM: -17%
[2]
  Quadrant (FIG. 5b): Q4
[3]; 10 µM
  LPS % inhibition: 16%
[3]
  inhibition at 10 µM: 8%

## CCN1C(=O)NC(c2ccccc2)C1=O (stereo not drawn) [Ethotoin]
[1]; [4]
  inhibition at 10 µM: -36%
[2]; [8]
  Quadrant (FIG. 5b): Q4
[3]; [5]
  inhibition at 10 µM: 12%

## NC(N)=Nc1nc(CSCCC(N)=NS(N)(=O)=O)cs1 [Famotidine]
[1]
  inhibition at 10 µM: -82%
[2]
  Quadrant (FIG. 5b): Q4
[3]
  inhibition at 10 µM: 9%

## Nc1ccc(C(=O)Oc2ccccc2)c(O)c1 [Fenamisal, Phenyl Aminosalicylate]
[1]; [4]
  Fibrin % inhibition: −8%
[2]; [8]
  Quadrant (FIG. 5b): Q4
[3]; [5]
  LPS % inhibition: 16%

## CC(C)(C(=O)O)c1ccc(C(O)CCCN2CCC(C(O)(c3ccccc3)c3ccccc3)CC2)cc1 (stereo not drawn) [Fexofenadine]
[1]
  inhibition at 10 µM: 13%
[2]
  Quadrant (FIG. 5b): Q4
[3]; 48 h
  inhibition at 10 µM: 14%

## C[C@@H]1C[C@H]2[C@@H]3C[C@H](F)C4=CC(=O)C=C[C@]4(C)[C@@]3(F)[C@@H](O)C[C@]2(C)[C@@]1(O)C(=O)CO [Flumethasone, reference compound]
[1]; 48 h, read-out: Fibrin IC50
  IC50: < 0.001 µM
[1]
  inhibition at 10 µM: 109%
[1]; read-out: Fibrin IC50 (uM)
  IC50: < 0.001 µM
[1]; read-out: Fibrin IC50 (uM) (Suppl. Table 7)
  IC50: < 0.001 µM
[2]
  Quadrant (FIG. 5b): Q2
[2]; read-out: Cherry-picked Hit (Suppl. Table 7)
  inhibition at 10 µM: > 50%
[2]; read-out: Hit
  inhibition at 10 µM: > 50%
[3]; 48 h
  inhibition at 10 µM: 101%
[3]; 48 h, read-out: LPS IC50
  IC50: < 0.001 µM
[3]; read-out: LPS IC50 (uM)
  IC50: < 0.001 µM
[3]; read-out: LPS IC50 (uM) (Suppl. Table 7)
  IC50: < 0.001 µM

## CC(=O)OCC(=O)[C@@]12OC(C)(C)O[C@@H]1C[C@H]1[C@@H]3C[C@H](F)C4=CC(=O)C=C[C@]4(C)[C@@]3(F)[C@@H](O)C[C@@]12C [Fluocinonide, reference compound]
[1]
  inhibition at 10 µM: 112%
[1]; read-out: fib_IC50 (uM)
  IC50: 0.002 µM
[2]
  Activity: fib/LPS
  Quadrant (FIG. 5b): Q2
[3]; 48 h
  inhibition at 10 µM: 106%
[3]; read-out: LPS_IC50 (uM)
  IC50: 0.002 µM

## CNCCC(Oc1ccc(C(F)(F)F)cc1)c1ccccc1.Cl (stereo not drawn) [Fluoxetine Hydrochloride, Fluoxetine]
[1]
  Fibrin % inhibition: 46%
[2]
  Quadrant (FIG. 5b): Q1
[3]
  LPS % inhibition: 65%

## CC(C)n1c(/C=C/C(O)CC(O)CC(=O)O)c(-c2ccc(F)cc2)c2ccccc21 (stereo not drawn) [Fluvastatin]
[1]; [9]
  inhibition at 10 µM: 110%
[2]; [10]
  Quadrant (FIG. 5b): Q2
[3]; [11]
  inhibition at 10 µM: 101%

## O=C1OCCN1/N=C/c1ccc([N+](=O)[O-])o1 [Furazolidone]
[1]
  inhibition at 10 µM: 3%
[2]
  Quadrant (FIG. 5b): Q4
[3]; 48 h
  inhibition at 10 µM: 8%
